# Results taken from US9132131B2, “Use of adenosine A3 receptor agonists for treatment of neuropathic pain” (Saint Louis University, priority 2011, dated 2015).
# How the values were obtained:
# Assay type in all cases: in vivo, mice
# [1] = test system: motor function (Rotarod latency); assay: Rotarod test; conditions: 0.5 μmol/kg i.p., 30, 60, 120 minutes
# Protocol: Rotarod test in mice: Mice were trained before experimentation for their ability to remain for 60 seconds on a revolving Rotarod for mice apparatus (Ugo Basile; accelerating units increasing from 5 to 40 rpm in 60 sec). Mice were injected i.p. with IB-MECA, MRS1898 (0.5 μmol/kg) or vehicle (0.1% DMSO in saline) and then examined at 30, 60 and 120 minutes after administration for motor impairments on the Rotarod. The latency time to fall off the Rotarod was determined with a cut-off time of 120 seconds.
# [2] = test system: acute nociception (hot plate latency); assay: Hot plate assay for acute nociception; conditions: 0.5 μmol/kg
# Protocol: (§1) Tail flick and hot plate assay in mice for acute nociception. The tail flick test, which measures latency(s) of tail withdrawal from a noxious radiant heat source (Ugo Basile; model number 37360) was used to measure thermal nociceptive sensitivity in mice with baseline latencies of 3-5 seconds and a cut-off time of 15 seconds to prevent tissue injury. Tail flick latencies were taken before and at 30, 60 and 120 minutes after i.p. injection of IB-MECA, MRS1898 (0.5 μmol/kg) or its vehicle (0.1% DMSO in saline). For the hot plate test, nociceptive thresholds were determined as previously reported by our group by measuring latencies (in seconds) of mice placed in a transparent glass cylinder on a hot plate maintained at 52° C.. Responses indicative of nociception included intermittent lifting and/or licking of the hindpaws or escape behavior. Hot plate latencies were taken in mice from all groups before and after drug administration. A cut-off latency of 15 seconds was employed to prevent tissue damage.
# [3] = test system: acute nociception (tail flick latency); assay: Tail flick assay for acute nociception; conditions: IB-MECA, MRS1898 0.5 μmol/kg i.p. at 30, 60, 120 minutes; morphine 35 μmol/kg s.c. positive control
# Protocol: as §1
smiles,measurement,setting,value
"CNC(=O)[C@H]1O[C@@H](n2cnc3c(NCc4cccc(I)c4)ncnc32)[C@H](O)[C@@H]1O [IB-MECA, N^6-(3-iodobenzyl)-adenosine-5′-N-methyluronamide]",Rotarod deficits,[1],did not induce Rotarod deficits
same,effect on the hot plate,[2],had no effect
same,effect on tail flick latency,[3],lacked effect
